Measured values from ChEMBL document CHEMBL1817576, “Specific inhibitions of annonaceous acetogenins on class II 3-hydroxy-3-methylglutaryl coenzyme A reductase from Streptococcus pneumoniae” (Bioorg Med Chem, 2011).
pKi: −log10 of the molar value.

Assays:
[1] = Inhibition of Streptococcus pneumoniae recombinant HMGR class II expressed in Escherichia coli using HMG-CoA as substrate
Streptococcus pneumoniae [2] = test: Activity of Streptococcus pneumoniae recombinant HMGR class II expressed in Escherichia coli BL21(DE3) using NADPH as substrate after 5 min by microplate reader
Listeria monocytogenes [3] = test: Activity of Listeria monocytogenes HMGR class II expressed in Escherichia coli BL21(DE3) using NADPH as substrate after 5 min by microplate reader
Staphylococcus aureus [4] = test: Activity of Staphylococcus aureus HMGR class II expressed in Escherichia coli BL21(DE3) using NADPH as substrate after 5 min by microplate reader
Haloferax volcanii [5] = test: Activity of Haloferax volcanii HMGR class I expressed in Escherichia coli BL21(DE3) using NADPH as substrate after 5 min by microplate reader
Mesocricetus auratus [6] = species: Mesocricetus auratus; test: Activity of syrian hamsters HMGR class I expressed in Escherichia coli BL21(DE3) using NADPH as substrate after 5 min by microplate reader
Streptococcus pneumoniae [7] = test: Ratio of Kcat to Km for Streptococcus pneumoniae HMGR class II using NADPH substrate
Listeria monocytogenes [8] = test: Ratio of Kcat to Km for Listeria monocytogenes HMGR class II using NADPH substrate
Streptococcus pneumoniae [9] = test: Ratio Ki for lovastatin to compound for recombinant Streptococcus pneumoniae HMGR class II
[10] = Inhibition of Listeria monocytogenes recombinant HMGR class II expressed in Escherichia coli using HMG-CoA as substrate
[11] = Inhibition of Staphylococcus aureus recombinant HMGR class II expressed in Escherichia coli using HMG-CoA as substrate
[12] = Inhibition of Archaeoglobus fulgidus HMGCR 1 recombinant HMGR class II expressed in Escherichia coli using HMG-CoA as substrate
[13] = Inhibition of Pseudomonas mevalonii recombinant HMGR class II expressed in Escherichia coli using HMG-CoA as substrate; design: species or system Pseudomonas sp. 'mevalonii'
Haloferax volcanii [14] = test: Activity of Haloferax volcanii HMGR class I expressed in Escherichia coli BL21(DE3) using HMG-CoA substrate after 1 min by microplate reader
Mesocricetus auratus [15] = species: Mesocricetus auratus; test: Activity of syrian hamsters HMGR class I expressed in Escherichia coli BL21(DE3) using HMG-CoA substrate after 1 min by microplate reader
Streptococcus pneumoniae [16] = test: Activity of Streptococcus pneumoniae recombinant HMGR class II expressed in Escherichia coli BL21(DE3) using HMG-CoA substrate after 1 min by microplate reader
Listeria monocytogenes [17] = test: Activity of Listeria monocytogenes HMGR class II expressed in Escherichia coli BL21(DE3) using HMG-CoA substrate after 1 min by microplate reader
Staphylococcus aureus [18] = test: Activity of Staphylococcus aureus HMGR class II expressed in Escherichia coli BL21(DE3) using HMG-CoA substrate after 1 min by microplate reader

In the case of CCCCCC[C@H](O)CCC[C@H](O)[C@H]1CC[C@H]([C@H](O)CC[C@H](O)[C@@H]2CC[C@@H](CCCCCCCCCC3=C[C@H](C)OC3=O)O2)O1 [SQUAMOSTATIN A], the pKi [1] was 5.19.

In the case of NC(=O)c1ccc[n+]([C@@H]2O[C@H](COP(=O)([O-])OP(=O)(O)OC[C@H]3O[C@@H](n4cnc5c(N)ncnc54)[C@H](OP(=O)(O)O)[C@@H]3O)[C@@H](O)[C@H]2O)c1, the Km (Streptococcus pneumoniae [2]) was 38.9 µM, the kcat (Streptococcus pneumoniae [2]) was 11.9 s⁻¹ and the Km (Listeria monocytogenes [3]) was 12.9 µM. It also gave a kcat (Listeria monocytogenes [3]) of 22.6 s⁻¹, a Km (Staphylococcus aureus [4]) of 70 µM and a Km (Haloferax volcanii [5]) of 66 µM. It also gave a Km (Mesocricetus auratus [6]) of 80 µM, a kcat/Km (Streptococcus pneumoniae [7]) of 322000 M⁻¹ s⁻¹ and a kcat/Km (Listeria monocytogenes [8]) of 186000 M⁻¹ s⁻¹.

With CC[C@H](C)C(=O)O[C@H]1C[C@@H](C)C=C2C=C[C@H](C)[C@H](CC[C@@H]3C[C@@H](O)CC(=O)O3)[C@H]21 [LOVASTATIN] the pKi [1] was 3.93, the Ratio Ki (Streptococcus pneumoniae [9]) was 20 and the pKi [10] was 3.89. The pKi [11] was 3.49, the pKi [12] was 3.28 and the pKi [13] was 3.74.

For CC(C)(CO[P@@](=O)(O)O[P@@](=O)(O)OC[C@H]1O[C@@H](n2cnc3c(N)ncnc32)[C@H](O)[C@@H]1OP(=O)(O)O)[C@@H](O)C(=O)NCCC(=O)NCCSC(=O)C[C@@](C)(O)CC(=O)O, the Km (Haloferax volcanii [14]) was 60 µM, the Km (Mesocricetus auratus [15]) was 20 µM and the Km (Streptococcus pneumoniae [16]) was 75.9 µM. For the same molecule, the Km (Listeria monocytogenes [17]) was 19.8 µM and the Km (Staphylococcus aureus [18]) was 40 µM.

Work on CCCCCCCCCC[C@H](O)[C@H]1CC[C@H]([C@H](O)CC[C@H](O)[C@@H]2CC[C@@H](CCCCCCC[C@@H](O)CC3=C[C@H](C)OC3=O)O2)O1 [BULLATALICIN] yielded a pKi [1] of 4.75.

With CCCCCCCCCCC(O)C1CCC(C2CCC(C(O)CCCCCCCC[C@H](O)CC3=C[C@@H](C)OC3=O)O2)O1 (some centres undefined) [ASIMICIN] the pKi [1] was 4.91.

CCCCC[C@H](O)CCCC[C@H](O)[C@H]1CC[C@H]([C@H]2CC[C@H]([C@H](O)CCCCCCCCCCCCC3=C[C@H](C)OC3=O)O2)O1 [MOTRILIN] showed a pKi [1] of 4.69.
